# Molecular target: Abl (Homo sapiens, UniProt P00519)
# Assay: Generic kinase assay (33P-ATP, Myelin Basic Protein)
# Assay type: biochemical
# Settings: 1 h; class symbol: % inhibition at 10 μM or IC50; read-out: Inhibitory effect on target Abl
# Description: (§1) In order to determine the inhibitory effect of the compounds of the subject invention on various target enzymes a generic kinase assay was established.
# (§2) Reactions were performed in 96-Well U-bottom microtiter plates (Greiner Bio-One; Frickenhausen/Germany, Cat. No. 650161), hereinafter designated “Assay Plates”. 10 μl of a solution comprising 40 μM Myelin Basic Protein (Invitrogen; Carlsbad, Calif./USA; Cat. No. 13228-010) and 4 μM ATP in three-fold concentrated Reaction Buffer (60 mM Tris-HCl, pH 7.5; 30 mM MgCl2; 3 mM dithiothreitol) were added into each well of the Assay Plate. 10 μl of serial dilutions of the compounds of the subject invention, dissolved in 4% DMSO, were then added into each well, except for Positive Control. Wells (C+ wells) and Negative Control Wells (C− wells). 10 μl of 4% DMSO without compounds were added to C+ and C− wells. 10 μl of a 500 mM solution of EDTA in water was then added to C− wells. Then 10 μl of a solution containing 50 μCi/ml Adenosine 5′-[γ-^33P]triphosphate in water was added to each well. To start the reaction 10 μl of the kinase to be assayed was added to each well. The optimal amount of kinase in the assay was determined to be the amount which yields to a turn-over of about 10% of ATP. Assay Plates were incubated for one hour at room temperature. Then 10 μl of a 500 mM solution of EDTA in water was added to each well except C− wells. Samples were now ready for measurement.
# (§3) Measurements were preformed in 96-Well MAPH-Filter Plates (Millipore; Billerica, Mass./United States; Cat. No. MAPHNOB50), hereinafter designated “Measurement Plates”. Measurement Plates were washed with 200 μl of a 0.75% H3PO4 solution per well. The H3PO4 solution was exhausted using a Millipore vacuum station. 60 μl of a 0.75% H3PO4 solution was then added into each well, followed by the transfer of 30 μl of each well from the Assay Plate into the corresponding wells of the Measurement Plate. The Measurement Plate was incubated for 30 minutes at room temperature. Thereafter each well was washed three times with 200 μl of a 0.75% H3PO4 solution using a Millipore vacuum station. 20 μl of scintillation liquid (Supermix Liquid Szintillator; Perkin Elmer, Wellesley. Mass./United States; Cat. No. 1200-439) was then added to each well of the Measurement Plate. The plate was sealed and stored for 30 minutes in the darkness before radioactivity was quantified in a MicroBeta Scintillation Counter (Perkin Elmer, Wellesley. Mass./United States).
# Abl, sequence (P00519 whole entry, species assumed): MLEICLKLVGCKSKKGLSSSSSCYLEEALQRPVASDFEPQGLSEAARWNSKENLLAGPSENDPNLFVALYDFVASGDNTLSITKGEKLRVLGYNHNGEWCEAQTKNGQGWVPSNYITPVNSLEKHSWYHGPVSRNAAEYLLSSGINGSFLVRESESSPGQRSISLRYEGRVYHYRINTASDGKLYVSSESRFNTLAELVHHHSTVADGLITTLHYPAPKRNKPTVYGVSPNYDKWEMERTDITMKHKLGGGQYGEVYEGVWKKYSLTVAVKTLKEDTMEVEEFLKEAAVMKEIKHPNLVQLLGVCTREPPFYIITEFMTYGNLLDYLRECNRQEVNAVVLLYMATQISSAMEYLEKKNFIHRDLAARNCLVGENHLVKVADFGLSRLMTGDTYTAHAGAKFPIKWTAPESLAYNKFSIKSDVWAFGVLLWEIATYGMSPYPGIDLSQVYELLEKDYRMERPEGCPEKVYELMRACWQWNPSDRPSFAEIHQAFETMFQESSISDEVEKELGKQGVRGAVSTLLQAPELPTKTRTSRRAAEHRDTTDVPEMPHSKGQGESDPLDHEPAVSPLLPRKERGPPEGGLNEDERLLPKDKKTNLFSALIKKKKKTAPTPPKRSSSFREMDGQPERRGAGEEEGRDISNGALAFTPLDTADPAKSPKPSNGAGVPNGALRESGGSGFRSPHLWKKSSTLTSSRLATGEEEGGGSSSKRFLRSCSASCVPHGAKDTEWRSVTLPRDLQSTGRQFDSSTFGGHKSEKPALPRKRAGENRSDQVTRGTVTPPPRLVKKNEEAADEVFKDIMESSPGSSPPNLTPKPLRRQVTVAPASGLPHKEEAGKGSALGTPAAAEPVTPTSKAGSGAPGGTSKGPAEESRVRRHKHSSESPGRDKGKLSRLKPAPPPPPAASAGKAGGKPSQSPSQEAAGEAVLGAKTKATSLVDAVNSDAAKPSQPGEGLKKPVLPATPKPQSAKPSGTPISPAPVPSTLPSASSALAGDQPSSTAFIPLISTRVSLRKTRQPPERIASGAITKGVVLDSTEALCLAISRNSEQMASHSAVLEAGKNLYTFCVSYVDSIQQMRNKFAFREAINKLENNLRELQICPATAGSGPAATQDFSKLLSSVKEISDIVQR
row,inhibition at 10 µM [%],Compound
1,50 to 90,"Oc1ccc(-c2cncc(NCc3cccc(O)c3)c2)cc1 [Compound 212, 3-{[5-(4-Hydroxy-phenyl)-pyridin-3-ylamino]-methyl}-phenol]"
2,50 to 90,"O=C(Nc1cncc(-c2cccc(O)c2)c1)c1cccc(O)c1 [Compound 234, 3-Hydroxy-N-[5-(3-hydroxy-phenyl)-pyridin-3-yl]-benzamide]"

# Molecular target: CDK2/CyclinA (Homo sapiens, UniProt P24941)
# Assay: as above
# Assay type: biochemical
# Settings: class symbol: % inhibition at 10 μM or IC50
# Description: as §1, §2, §3
row,Compound,Inhibitory effect on target CDK2/CyclinA
1,"Oc1ccc(-c2cncc(NCc3cccc(O)c3)c2)cc1 [Compound 212, 3-{[5-(4-Hydroxy-phenyl)-pyridin-3-ylamino]-methyl}-phenol]",B (B: >90% inhibition at 10 μM enzyme concentration)

# Molecular target: EGFR (Homo sapiens, UniProt P00533)
# Sequence (P00533 25-1210, species assumed): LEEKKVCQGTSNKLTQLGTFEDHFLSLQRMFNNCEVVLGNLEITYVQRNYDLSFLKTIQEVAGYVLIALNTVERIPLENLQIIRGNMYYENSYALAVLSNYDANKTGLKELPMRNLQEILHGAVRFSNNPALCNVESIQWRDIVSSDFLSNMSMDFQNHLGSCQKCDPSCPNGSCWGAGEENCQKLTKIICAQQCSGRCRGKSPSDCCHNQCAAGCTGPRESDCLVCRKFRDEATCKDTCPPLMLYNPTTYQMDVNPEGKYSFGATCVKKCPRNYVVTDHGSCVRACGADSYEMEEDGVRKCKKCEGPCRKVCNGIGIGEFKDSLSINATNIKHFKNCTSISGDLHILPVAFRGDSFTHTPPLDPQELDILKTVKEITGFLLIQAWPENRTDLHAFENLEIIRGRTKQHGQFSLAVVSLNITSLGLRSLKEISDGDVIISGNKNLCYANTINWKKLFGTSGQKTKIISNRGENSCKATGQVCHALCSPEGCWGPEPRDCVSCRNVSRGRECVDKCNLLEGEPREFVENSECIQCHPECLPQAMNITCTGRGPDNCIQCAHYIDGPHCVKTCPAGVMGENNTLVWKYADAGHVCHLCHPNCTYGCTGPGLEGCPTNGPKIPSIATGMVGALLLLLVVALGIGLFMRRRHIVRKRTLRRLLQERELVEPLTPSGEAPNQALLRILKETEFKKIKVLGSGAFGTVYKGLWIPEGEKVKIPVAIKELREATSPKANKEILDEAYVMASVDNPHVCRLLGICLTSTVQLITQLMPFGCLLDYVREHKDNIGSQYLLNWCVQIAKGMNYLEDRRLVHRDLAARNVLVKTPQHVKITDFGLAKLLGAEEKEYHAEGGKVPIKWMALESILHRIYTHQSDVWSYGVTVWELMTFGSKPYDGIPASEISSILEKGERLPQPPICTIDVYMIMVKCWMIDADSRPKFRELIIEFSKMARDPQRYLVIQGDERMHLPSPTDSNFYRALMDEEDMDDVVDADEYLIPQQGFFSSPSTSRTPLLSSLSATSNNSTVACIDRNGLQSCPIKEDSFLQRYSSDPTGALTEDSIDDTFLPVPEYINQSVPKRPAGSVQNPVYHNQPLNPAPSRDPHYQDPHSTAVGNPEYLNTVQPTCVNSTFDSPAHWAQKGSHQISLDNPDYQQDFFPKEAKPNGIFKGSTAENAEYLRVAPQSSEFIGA
# Assay: as above
# Assay type: biochemical
# Settings: class symbol: % inhibition at 10 μM or IC50
# Description: as §1, §2, §3
row,Compound,Inhibitory effect on target EGFR
1,"Oc1ccc(-c2cncc(NCc3cccc(O)c3)c2)cc1 [Compound 212, 3-{[5-(4-Hydroxy-phenyl)-pyridin-3-ylamino]-methyl}-phenol]",A (A: 50-90% inhibition at 10 μM enzyme concentration)
2,"O=C(Nc1cncc(-c2cccc(O)c2)c1)c1cccc(O)c1 [Compound 234, 3-Hydroxy-N-[5-(3-hydroxy-phenyl)-pyridin-3-yl]-benzamide]",B (B: >90% inhibition at 10 μM enzyme concentration)

# Molecular target: GSK-3beta (Homo sapiens, UniProt P49841)
# Assay: as above
# Assay type: biochemical
# Settings: class symbol: % inhibition at 10 μM or IC50
# Description: as §1, §2, §3
row,Compound,Inhibitory effect on target GSK-3beta
1,"Oc1ccc(-c2cncc(NCc3cccc(O)c3)c2)cc1 [Compound 212, 3-{[5-(4-Hydroxy-phenyl)-pyridin-3-ylamino]-methyl}-phenol]",A (A: 50-90% inhibition at 10 μM enzyme concentration)

# Molecular target: T1, IKKb (Homo sapiens, UniProt O14920)
# T1 sequence (O14920 1-756): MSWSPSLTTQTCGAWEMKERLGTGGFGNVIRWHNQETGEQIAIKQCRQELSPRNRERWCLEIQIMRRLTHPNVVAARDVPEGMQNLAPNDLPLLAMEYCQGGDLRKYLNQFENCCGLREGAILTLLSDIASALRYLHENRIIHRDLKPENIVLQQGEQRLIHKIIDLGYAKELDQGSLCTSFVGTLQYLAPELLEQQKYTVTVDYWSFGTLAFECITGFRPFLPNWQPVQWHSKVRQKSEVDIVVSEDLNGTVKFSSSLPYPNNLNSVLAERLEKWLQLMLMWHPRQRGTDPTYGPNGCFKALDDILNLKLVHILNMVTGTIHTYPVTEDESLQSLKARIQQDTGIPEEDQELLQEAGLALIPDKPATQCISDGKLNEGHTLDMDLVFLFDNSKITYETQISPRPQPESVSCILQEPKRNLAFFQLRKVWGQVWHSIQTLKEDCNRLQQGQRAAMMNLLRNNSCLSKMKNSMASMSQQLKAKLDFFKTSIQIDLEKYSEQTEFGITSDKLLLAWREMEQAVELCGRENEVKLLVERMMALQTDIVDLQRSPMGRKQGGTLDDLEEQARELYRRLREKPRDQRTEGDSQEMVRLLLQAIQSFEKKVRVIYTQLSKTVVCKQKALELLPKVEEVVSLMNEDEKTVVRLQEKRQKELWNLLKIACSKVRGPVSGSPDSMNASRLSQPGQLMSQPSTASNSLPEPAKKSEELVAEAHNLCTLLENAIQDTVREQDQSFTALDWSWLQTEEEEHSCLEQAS
# Assay: as above
# Assay type: biochemical
# Settings: class symbol: % inhibition at 10 μM or IC50
# Description: as §1, §2, §3
row,Compound,Inhibitory effect on target IKKb
1,"O=C(Nc1cncc(-c2cccc(O)c2)c1)c1cccc(O)c1 [Compound 234, 3-Hydroxy-N-[5-(3-hydroxy-phenyl)-pyridin-3-yl]-benzamide]",A (A: 50-90% inhibition at 10 μM enzyme concentration)

# Test system: PDGFR
# Assay: as above
# Assay type: biochemical
# Settings: class symbol: % inhibition at 10 μM or IC50
# Description: as §1, §2, §3
row,Compound,Inhibitory effect on target PDGFR
1,"Oc1ccc(-c2cncc(NCc3cccc(O)c3)c2)cc1 [Compound 212, 3-{[5-(4-Hydroxy-phenyl)-pyridin-3-ylamino]-methyl}-phenol]",A (A: 50-90% inhibition at 10 μM enzyme concentration)
2,"O=C(Nc1cncc(-c2cccc(O)c2)c1)c1cccc(O)c1 [Compound 234, 3-Hydroxy-N-[5-(3-hydroxy-phenyl)-pyridin-3-yl]-benzamide]",B (B: >90% inhibition at 10 μM enzyme concentration)

# Molecular target: RICK (Homo sapiens, UniProt O43353)
# Sequence (O43353 whole entry, species assumed): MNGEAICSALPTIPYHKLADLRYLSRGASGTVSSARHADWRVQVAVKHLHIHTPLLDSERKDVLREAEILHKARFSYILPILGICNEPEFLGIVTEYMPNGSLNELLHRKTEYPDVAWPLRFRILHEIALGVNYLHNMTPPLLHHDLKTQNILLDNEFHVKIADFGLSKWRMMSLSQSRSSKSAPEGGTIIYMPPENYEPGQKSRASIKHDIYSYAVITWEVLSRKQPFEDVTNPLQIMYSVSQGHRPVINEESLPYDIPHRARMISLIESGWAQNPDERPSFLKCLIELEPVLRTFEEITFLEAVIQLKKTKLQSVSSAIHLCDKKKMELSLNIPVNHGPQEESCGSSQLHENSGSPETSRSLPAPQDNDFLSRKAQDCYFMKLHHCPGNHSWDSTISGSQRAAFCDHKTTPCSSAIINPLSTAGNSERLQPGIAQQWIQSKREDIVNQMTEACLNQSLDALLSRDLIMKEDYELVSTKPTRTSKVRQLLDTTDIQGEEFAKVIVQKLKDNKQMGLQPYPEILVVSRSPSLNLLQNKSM
# Assay: as above
# Assay type: biochemical
# Settings: class symbol: % inhibition at 10 μM or IC50
# Description: as §1, §2, §3
row,Inhibitory effect on target RICK,Compound
1,C (C: IC50 measured: <1 μM),"Oc1ccc(-c2cncc(NCc3cccc(O)c3)c2)cc1 [Compound 212, 3-{[5-(4-Hydroxy-phenyl)-pyridin-3-ylamino]-methyl}-phenol]"
2,C (C: IC50 measured: <1 μM),"O=C(Nc1cncc(-c2cccc(O)c2)c1)c1cccc(O)c1 [Compound 234, 3-Hydroxy-N-[5-(3-hydroxy-phenyl)-pyridin-3-yl]-benzamide]"

# Molecular target: ROCK 2 (Homo sapiens, UniProt O75116)
# Assay: as above
# Assay type: biochemical
# Settings: class symbol: % inhibition at 10 μM or IC50
# Description: as §1, §2, §3
row,Inhibitory effect on target ROCK 2,Compound
1,C (C: IC50 measured: <1 μM),"Oc1ccc(-c2cncc(NCc3cccc(O)c3)c2)cc1 [Compound 212, 3-{[5-(4-Hydroxy-phenyl)-pyridin-3-ylamino]-methyl}-phenol]"

# Molecular target: c-Src (Homo sapiens, UniProt P12931)
# Assay: as above
# Assay type: biochemical
# Settings: class symbol: % inhibition at 10 μM or IC50
# Description: as §1, §2, §3
row,Compound,Inhibitory effect on target c-Src
1,"O=C(Nc1cncc(-c2cccc(O)c2)c1)c1cccc(O)c1 [Compound 234, 3-Hydroxy-N-[5-(3-hydroxy-phenyl)-pyridin-3-yl]-benzamide]",B (B: >90% inhibition at 10 μM enzyme concentration)

# Molecular target: c-kit (Homo sapiens, UniProt P10721)
# Sequence (P10721 26-976): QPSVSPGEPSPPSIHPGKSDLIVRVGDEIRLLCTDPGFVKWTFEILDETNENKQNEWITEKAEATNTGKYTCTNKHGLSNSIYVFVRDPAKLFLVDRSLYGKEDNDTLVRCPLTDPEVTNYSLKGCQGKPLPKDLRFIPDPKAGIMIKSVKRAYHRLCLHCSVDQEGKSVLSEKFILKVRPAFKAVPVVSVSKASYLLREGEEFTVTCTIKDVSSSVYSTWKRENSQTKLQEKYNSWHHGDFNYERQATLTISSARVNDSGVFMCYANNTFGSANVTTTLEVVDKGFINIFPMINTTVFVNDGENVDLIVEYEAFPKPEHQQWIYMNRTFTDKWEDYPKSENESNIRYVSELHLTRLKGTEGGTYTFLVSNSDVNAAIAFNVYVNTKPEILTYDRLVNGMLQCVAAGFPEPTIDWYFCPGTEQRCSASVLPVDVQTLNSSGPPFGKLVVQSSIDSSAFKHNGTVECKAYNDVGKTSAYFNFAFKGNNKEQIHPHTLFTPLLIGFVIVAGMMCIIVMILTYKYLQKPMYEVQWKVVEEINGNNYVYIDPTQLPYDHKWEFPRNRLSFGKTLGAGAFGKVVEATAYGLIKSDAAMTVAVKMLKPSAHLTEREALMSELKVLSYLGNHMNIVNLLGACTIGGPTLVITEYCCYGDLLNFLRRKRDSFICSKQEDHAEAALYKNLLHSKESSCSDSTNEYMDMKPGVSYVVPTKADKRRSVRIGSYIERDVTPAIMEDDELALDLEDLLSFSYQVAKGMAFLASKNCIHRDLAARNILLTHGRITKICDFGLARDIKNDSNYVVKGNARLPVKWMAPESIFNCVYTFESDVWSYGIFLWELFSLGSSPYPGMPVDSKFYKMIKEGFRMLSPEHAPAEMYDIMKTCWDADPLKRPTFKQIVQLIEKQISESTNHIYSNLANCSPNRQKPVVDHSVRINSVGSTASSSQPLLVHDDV
# Assay: as above
# Assay type: biochemical
# Settings: 1 h; class symbol: % inhibition at 10 μM or IC50; read-out: Inhibitory effect on target c-kit
# Description: as §1, §2, §3
row,inhibition at 10 µM [%],Compound
1,> 90,"Oc1ccc(-c2cncc(NCc3cccc(O)c3)c2)cc1 [Compound 212, 3-{[5-(4-Hydroxy-phenyl)-pyridin-3-ylamino]-methyl}-phenol]"
2,50 to 90,"O=C(Nc1cncc(-c2cccc(O)c2)c1)c1cccc(O)c1 [Compound 234, 3-Hydroxy-N-[5-(3-hydroxy-phenyl)-pyridin-3-yl]-benzamide]"

# Molecular target: cRaf (Homo sapiens, UniProt P04049)
# Sequence (P04049 whole entry, species assumed): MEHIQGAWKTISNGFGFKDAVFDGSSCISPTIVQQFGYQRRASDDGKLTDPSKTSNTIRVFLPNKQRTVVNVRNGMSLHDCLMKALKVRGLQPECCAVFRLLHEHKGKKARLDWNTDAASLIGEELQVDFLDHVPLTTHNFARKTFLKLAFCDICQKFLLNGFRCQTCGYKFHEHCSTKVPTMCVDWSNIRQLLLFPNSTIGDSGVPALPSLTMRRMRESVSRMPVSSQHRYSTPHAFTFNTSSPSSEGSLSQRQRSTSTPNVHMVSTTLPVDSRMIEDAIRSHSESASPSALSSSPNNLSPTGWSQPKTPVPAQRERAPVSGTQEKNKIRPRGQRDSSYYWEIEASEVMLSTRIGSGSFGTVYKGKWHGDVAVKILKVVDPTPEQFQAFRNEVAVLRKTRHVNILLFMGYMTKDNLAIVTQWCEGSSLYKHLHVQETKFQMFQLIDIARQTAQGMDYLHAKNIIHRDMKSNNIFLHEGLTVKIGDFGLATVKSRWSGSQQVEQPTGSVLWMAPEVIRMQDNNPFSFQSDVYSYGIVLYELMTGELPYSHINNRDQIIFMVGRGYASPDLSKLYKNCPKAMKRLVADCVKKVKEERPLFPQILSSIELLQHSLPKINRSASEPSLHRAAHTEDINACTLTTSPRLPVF
# Assay: as above
# Assay type: biochemical
# Settings: 1 h; class symbol: % inhibition at 10 μM or IC50; read-out: Inhibitory effect on target cRaf
# Description: as §1, §2, §3
row,inhibition at 10 µM [%],Compound
1,50 to 90,"Oc1ccc(-c2cncc(NCc3cccc(O)c3)c2)cc1 [Compound 212, 3-{[5-(4-Hydroxy-phenyl)-pyridin-3-ylamino]-methyl}-phenol]"
2,50 to 90,"O=C(Nc1cncc(-c2cccc(O)c2)c1)c1cccc(O)c1 [Compound 234, 3-Hydroxy-N-[5-(3-hydroxy-phenyl)-pyridin-3-yl]-benzamide]"

# Molecular target: p56Lck (Homo sapiens, UniProt P06239)
# Sequence (P06239 whole entry, species assumed): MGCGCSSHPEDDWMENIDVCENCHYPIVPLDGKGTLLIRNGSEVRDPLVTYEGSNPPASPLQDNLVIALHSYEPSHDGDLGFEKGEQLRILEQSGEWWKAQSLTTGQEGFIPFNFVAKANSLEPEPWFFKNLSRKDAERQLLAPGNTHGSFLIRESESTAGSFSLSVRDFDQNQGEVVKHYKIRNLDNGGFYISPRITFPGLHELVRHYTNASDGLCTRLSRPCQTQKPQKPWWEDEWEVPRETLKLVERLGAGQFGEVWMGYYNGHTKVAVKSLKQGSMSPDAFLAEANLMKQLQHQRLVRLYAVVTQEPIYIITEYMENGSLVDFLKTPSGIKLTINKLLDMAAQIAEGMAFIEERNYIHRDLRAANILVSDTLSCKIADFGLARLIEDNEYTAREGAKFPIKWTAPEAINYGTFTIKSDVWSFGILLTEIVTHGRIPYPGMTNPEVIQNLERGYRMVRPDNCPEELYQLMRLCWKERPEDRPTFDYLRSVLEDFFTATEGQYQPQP
# Assay: as above
# Assay type: biochemical
# Settings: 1 h; class symbol: % inhibition at 10 μM or IC50; read-out: Inhibitory effect on target p56Lck
# Description: as §1, §2, §3
row,inhibition at 10 µM [%],Compound
1,> 90,"Oc1ccc(-c2cncc(NCc3cccc(O)c3)c2)cc1 [Compound 212, 3-{[5-(4-Hydroxy-phenyl)-pyridin-3-ylamino]-methyl}-phenol]"
2,> 90,"O=C(Nc1cncc(-c2cccc(O)c2)c1)c1cccc(O)c1 [Compound 234, 3-Hydroxy-N-[5-(3-hydroxy-phenyl)-pyridin-3-yl]-benzamide]"
